# Measured values reported in patent EP0458892B1, “USE OF CHLORMETHIAZOLE IN THE MANUFACTURE OF A MEDICAMENT FOR THE PREVENTION AND/OR TREATMENT OF NEURODEGENERATION” (priority 1989, dated 1990).
# Legend:
# [1] = tested on: CA1/CA2 hippocampal neurones; assay: Gerbil carotid occlusion ischaemia, test compound administered prior to induction of ischaemia; format: in vivo; settings: gerbils; for % Damage to CA1/CA2 Hippocampal Neurones: assessed after 4 days
# From the text: (§1) The detailed mechanisms that underlie ischaemia-induced degeneration of hippocampal neurones have yet to be clarified, but the above mentioned gerbil test system has been widely used as a predictive model of neuroprotective activity (see, for example, B.J. Alps, C. Calder, W.K. Hass and A.D. Wilson, Brit. J. Pharmacol., 1988, 93, 877-883; R. Gill, A.C. Foster and G.N. Woodruff, J. Neuroscience, 1987, 7, 3343-3349).
# (§2) Ischaemia was induced in gerbils by occlusion of the carotid arteries following the accepted general procedure as described in, for example, EP 230 370 and R. Gill, A.C. Foster and G.N. Woodruff, J. Neuroscience, 1987, 7, 3343-3349.
# (§3) Ischaemia was induced in gerbils by 10 minute occlusion of both carotid arteries. Restoration of blood flow after occlusion was checked visually and the animals were allowed to survive for 4 days. The extent of neuronal degeneration in the hippocampus was then assessed. The test compounds were administered (i.p.) as a single dose 30 minutes prior to occlusion.
# [2] = tested on: CA1/CA2 hippocampal neurones; assay: Gerbil carotid occlusion ischaemia, test compound administered following induction of ischaemia; format: in vivo; settings: gerbils; for % Damage to CA1/CA2 Hippocampal Neurones: assessed after 4 days
# From the text: as §1, §2, §3
# The general procedure described in (a) above was followed except that the test compound was administered (i.p.) as a single dose at the stated time following the end of the occlusion. No administration was made prior to the occlusion.
compound,measurement,setting,value
C[C@]12N[C@H](Cc3ccccc31)c1ccccc12 [MK 801],% Damage to CA1/CA2 Hippocampal Neurones,[1]; 3mg/kg i.p. single dose 30 minutes prior to 10 minute occlusion of both carotid arteries,< 5%
"Cc1ncsc1CCCl [chlormethiazole, 5-(2-chloroethyl)-4-methylthiazole]",damage to the CA1/CA2 hippocampal neurones (result in words),"[1]; i.p. single dose 30 minutes prior to occlusion, summary of Table 1",effective in reducing the damage to the CA1/CA2 hippocampal neurones
same,damage to the CA1/CA2 hippocampal neurones (result in words),"[2]; i.p. single dose after the ischaemic insult, summary of Table 2",effective in reducing the damage to the CA1/CA2 hippocampal neurones
CC(C(O)c1ccc(O)cc1)N1CCC(Cc2ccccc2)CC1 (centres unmarked) [Ifenprodil],% Damage to CA1/CA2 Hippocampal Neurones,[1]; 4mg/kg i.p. single dose 30 minutes prior to 10 minute occlusion of both carotid arteries,62 ± 8.0%
Cc1ncsc1CCCl [Chlormethiazole ethanedisulphonate],% Damage to CA1/CA2 Hippocampal Neurones,[1]; 50mg/kg i.p. single dose 30 minutes prior to 10 minute occlusion of both carotid arteries,37.6 ± 13.4%
same,% Damage to CA1/CA2 Hippocampal Neurones,[1]; 100mg/kg i.p. single dose 30 minutes prior to 10 minute occlusion of both carotid arteries,< 5%
same,% Damage to CA1/CA2 Hippocampal Neurones,[2]; 50mg/kg i.p. single dose 30 minutes after the end of 10 minute occlusion,69.4 ± 6.9%
same,% Damage to CA1/CA2 Hippocampal Neurones,[2]; 100mg/kg i.p. single dose 30 minutes after the end of 10 minute occlusion,12.8 ± 10.4%
same,% Damage to CA1/CA2 Hippocampal Neurones,[2]; 100mg/kg i.p. single dose 1 hour after the end of 10 minute occlusion,14.3 ± 8.7%
same,% Damage to CA1/CA2 Hippocampal Neurones,[2]; 100mg/kg i.p. single dose 2 hours after the end of 10 minute occlusion,7.25 ± 4.8%
same,% Damage to CA1/CA2 Hippocampal Neurones,[2]; 100mg/kg i.p. single dose 6 hours after the end of 10 minute occlusion,45.6 ± 14%
